pEC50, pIC50, pKi: −log10 of the molar value. Read-outs that look alike come from different tables or passages of the source.
How the values were obtained:
[1] = tested on: mutant HIV-1 with I84V/L90M mutations; assay: microbe, parasite or virus in culture; type: cell-based; conditions: for I84V/L90M fold change: fold difference in EC50 mutant vs wild type, class symbols
[2] = tested on: recombinant HIV-1 10I/48V/54V/82A; assay: microbe, parasite or virus in culture; type: cell-based
[3] = tested on: recombinant HIV-1 46I/47V/50V; assay: microbe, parasite or virus in culture; type: cell-based
[4] = tested on: recombinant HIV-1 30N/50S/82I/88D; assay: microbe, parasite or virus in culture; type: cell-based
[5] = tested on: recombinant HIV-1 10I/48V/71V/82A/90M; assay: microbe, parasite or virus in culture; type: cell-based
[6] = tested on: recombinant HIV-1 48V/54V/71V/82S; assay: microbe, parasite or virus in culture; type: cell-based
84V90M [7] = target: T1, 84V90M (Human immunodeficiency virus type 1 group M subtype B, UniProt P04585, I572V/L578M); assay: biochemical; type: biochemical, HIV; conditions: Enzymatic assay
[8] = tested on: Recombinant HIV-1 Strains With Resistance Mutations in the Protease Gene; assay: Cross-Resistance Profile Assay, whole panel; type: cell-based; conditions: resistance = 5-fold and higher change in EC50 vs wild type; 11 mutant viruses
[9] = target: T2, recombinant HIV-1 protease (Human immunodeficiency virus type 1 group M subtype B, UniProt P04585); assay: biochemical; conditions: for pIC50: read-out: WT IC50
T2 construct: Enzyme: recombinant HIV-1 protease expressed in E. Coli; purchased Bachem California, Inc. H-9040; host or cells: E. coli

WT = assay: microbe, parasite or virus in culture; type: cell-based, HIV
84V90M [10] = target: T1, 84V90M; assay: cell-based; parameters: species or system HIV; conditions: Cell-based assay (MT-4)
30N82I88D = assay: microbe, parasite or virus in culture; type: cell-based, HIV
48V54V82A = assay: microbe, parasite or virus in culture; type: cell-based, HIV
48V54V82S = assay: microbe, parasite or virus in culture; type: cell-based, HIV
48V82A90M = assay: microbe, parasite or virus in culture; type: cell-based, HIV
46I50V = assay: microbe, parasite or virus in culture; type: cell-based, HIV
WT HIV-1 = assay: microbe, parasite or virus in culture; conditions: Human immunodeficiency virus 1, read-out: Cell-based assay (MT-4) EC50/nM WT
[11] = tested on: wild-type HIV-1 strain IIIB; assay: microbe, parasite or virus in culture; type: cell-based; conditions: Human immunodeficiency virus 1, IIIB
HIV = assay: microbe, parasite or virus in culture; type: cell-based; conditions: Human immunodeficiency virus 1
I50V (#1) = tested on: I50V (#1); parameters: key to the marks not given beside the values
I84V/L90M = tested on: I84V/L90M; parameters: key to the marks not given beside the values
84V90M [12] = target: T1, 84V90M; type: biochemical, HIV; conditions: Enzymatic assay
in vitro = conditions: human, CC50 (μM)
[13] = tested on: PBMC in human whole blood
[14] = Human immunodeficiency virus 1, read-out: EC50 30N 82I88D
[15] = Human immunodeficiency virus 1, read-out: EC50 48V54V 82A
[16] = Human immunodeficiency virus 1, read-out: EC50 46I50V
[17] = Human immunodeficiency virus 1, read-out: EC50 WT

CCOP(=O)(COc1ccc(CC2C(O)C(O)C(Cc3ccc(OC)cc3)N(Cc3ccc(O)cc3)C(=O)N2Cc2ccc(O)cc2)cc1)OCC (centres unmarked) [OCH3, Ph-pOH, OCH2PO3Et2]
EC50 ([1]; MT-4, 84V90M, read-out: Cell-based assay (MT-4) EC50/nM 84V90M): 148 nM | EC50 ([2]; MT-4, 48V54V82A, read-out: Cell-based assay (MT-4) EC50/nM 48V54V82A): 70 nM | EC50 ([3]; MT-4, 46I50V, read-out: Cell-based assay (MT-4) EC50/nM 46I50V): 90 nM | EC50 ([4]; MT-4, 30N82I88D, read-out: Cell-based assay (MT-4) EC50/nM 30N82I88D): 25 nM | EC50 ([5]; MT-4, 48V82A90M, read-out: Cell-based assay (MT-4) EC50/nM 48V82A90M): 54 nM | EC50 ([6]; MT-4, 48V54V82S, read-out: Cell-based assay (MT-4) EC50/nM 48V54V82S): 129 nM

CCOP(=O)(CCNC(=O)Oc1ccc(CC2C(O)C(O)C(Cc3ccc(OC)cc3)N(Cc3ccc(O)cc3)C(=O)N2Cc2ccc(O)cc2)cc1)OCC (centres unmarked) [OCH3, Ph-pOH, OCONH(CH2)2PO3Et2]
IC50 (84V90M [7]): 49 nM

CCCCOC(=O)C(C)NP(=O)(COc1ccc(CC(NC(=O)OC2COC3OCCC23)C(O)CN(CC(C)C)S(=O)(=O)c2ccc(OC)cc2)cc1)NC(C)C(=O)OCCCC (centres unmarked) [GS-16503]
Total No. of Resistant Viruses [8]: 0

Nc1n[nH]c2ccc(CN3C(=O)N(Cc4ccc(OCc5ccccc5)cc4)C(Cc4ccccc4)C(O)C(O)C3Cc3ccccc3)cc12 (centres unmarked) [p-OBn]
pKi ([9]; read-out: Ki): < 8.30 | pIC50 [9]: 6.45 | pEC50 (WT; read-out: EC50 WT): 5.67 | pEC50 (84V90M [10]): 5.27

Nc1n[nH]c2ccc(CN3C(=O)N(Cc4ccc(O)cc4)C(Cc4ccccc4)C(O)C(O)C3Cc3ccccc3)cc12 (centres unmarked) [p-OH]
pEC50 (30N82I88D; [14]): 7.10 | pEC50 (48V54V82A; [15]): 7.49 | pEC50 (48V54V82S; Human immunodeficiency virus 1, read-out: EC50 48V54V 82S): 7.41 | pEC50 (48V82A90M; Human immunodeficiency virus 1, read-out: EC50 48V82A 90M): 7.72 | pEC50 (46I50V; [16]): 7.26

CCOP(=O)(CCNC(=O)Oc1ccc(CC2C(O)C(O)C(Cc3ccc(OC)cc3)N(Cc3cccc(N)c3)C(=O)N2Cc2cccc(N)c2)cc1)OCC (centres unmarked) [OCH3, Ph-mNH2, OCONH(CH2)2PO3Et2]
EC50 ([1]; Human immunodeficiency virus 1, read-out: Cell-based assay (MT-4) EC50/nM 84V90M): 2260 nM | EC50 (WT HIV-1): 74 nM | EC50 ([2]; Human immunodeficiency virus 1, read-out: Cell-based assay (MT-4) EC50/nM 48V54V82A): 262 nM | EC50 ([3]; Human immunodeficiency virus 1, read-out: Cell-based assay (MT-4) EC50/nM 46I50V): 184 nM | EC50 ([4]; Human immunodeficiency virus 1, read-out: Cell-based assay (MT-4) EC50/nM 30N82I88D): 77 nM | EC50 ([5]; Human immunodeficiency virus 1, read-out: Cell-based assay (MT-4) EC50/nM 48V82A90M): 215 nM | EC50 ([6]; Human immunodeficiency virus 1, read-out: Cell-based assay (MT-4) EC50/nM 48V54V82S): 214 nM | IC50 (84V90M [7]): 116 nM

COc1ccc(S(=O)(=O)N(CC(C)C)CC(O)C(Cc2ccc(OCP(=O)(OCc3ccccc3)OCc3ccccc3)cc2)NC(=O)OC2COC3OCCC23)cc1 (centres unmarked) [drawing 1768 R1=OBn R2=OBn]
pEC50 [11]: > 7.30 | I84V/L90M fold change [1]: − (≦3) | CC50 (MT-2 cells; human): 5 to 50 µM

COc1ccc(S(=O)(=O)N(CC(O)C(Cc2ccccc2)NC(=O)OC2COC3OCCC23)CC(C)(C)CCOCP(=O)(O)O)cc1 (centres unmarked)
pEC50 (HIV): 6.30 to 7.30 | I50V (#1) fold change (I50V (#1)): ++ | I84V/L90M fold change (I84V/L90M): ++

COc1ccc(S(=O)(=O)N(Cc2ccccc2)CC(O)C(Cc2ccccc2)NC(=O)OC2COC3OCCC23)cc1 (centres unmarked)
pEC50 (HIV): > 7.30 | I50V (#1) fold change (I50V (#1)): +++ | I84V/L90M fold change (I84V/L90M): +++

COc1ccc(S(=O)(=O)N(CC(O)C(Cc2ccccc2)NC(=O)OC2COC3OCCC23)CC(C)(C)CO)cc1 (centres unmarked)
pEC50 (HIV): > 7.30 | I50V (#1) fold change (I50V (#1)): +++ | I84V/L90M fold change (I84V/L90M): +++

CCOC(=O)C(C)OP(=O)(COc1ccc(CC(NC(=O)OC2COC3OCCC23)C(O)CN(CC(C)C)S(=O)(=O)c2ccc(OC)cc2)cc1)Oc1ccccc1 (centres unmarked) [drawing 1775 R1=OPh R2=Lac-Et]
CC50 (MT-2 cells; class symbols): 5 to 50 µM

CCOP(=O)(COc1ccc(CC2C(O)C(O)C(Cc3ccc(OC)cc3)N(Cc3cccc(N)c3)C(=O)N2Cc2cccc(N)c2)cc1)OCC (centres unmarked) [OCH3, Ph-mNH2, OCH2PO3Et2]
pIC50 (84V90M [12]): 7.25 | IC50 (84V90M [7]): 56 nM | pEC50 (84V90M [10]): 6.27

O=C1N(Cc2ccccc2)C(Cc2ccc(O)cc2)C(O)C(O)C(Cc2ccc(O)cc2)N1Cc1ccccc1 (centres unmarked) [OH, Ph, OH]
pIC50 [9]: 7.51 | pIC50 (84V90M [12]): 6.40 | pEC50 (WT; [17]): 6.93 | pEC50 (84V90M [10]): 5.25 | pEC50 (30N82I88D; [14]): 6.12 | pEC50 (48V54V82A; [15]): 5.64 | pEC50 (46I50V; [16]): 6.03

O=C1N(Cc2ccccc2)C(Cc2ccccc2)C(O)C(O)C(Cc2ccc(OCP(=O)(OCc3ccccc3)OCc3ccccc3)cc2)N1Cc1ccccc1 (centres unmarked)
IC50 (84V90M [7]): 158 nM

O=C1N(Cc2ccccc2)C(Cc2ccccc2)C(O)C(O)C(Cc2ccccc2)N1Cc1ccccc1 (centres unmarked) [H, Ph, H]
pIC50 [9]: 7.47 | pIC50 (84V90M [12]): 6.20 | pEC50 (WT; [17]): 5.60 | pEC50 (30N82I88D; [14]): 5.47

Nc1n[nH]c2ccc(CN3C(=O)N(Cc4cccc(OCP(=O)(O)O)c4)C(Cc4ccccc4)C(O)C(O)C3Cc3ccccc3)cc12 (centres unmarked) [m-OCH2PO3H2]
pIC50 (84V90M [12]): 7.48 | pEC50 (WT; read-out: EC50 WT): < 4.92

COc1ccc(S(=O)(=O)N(CC(O)C(Cc2ccccc2)NC(=O)OC2COC3OCCC23)CC(C)(C)CCOCP(=O)(OCc2ccccc2)OCc2ccccc2)cc1 (centres unmarked)
pEC50 (HIV): > 7.30 | I50V (#1) fold change (I50V (#1)): +++ | I84V/L90M fold change (I84V/L90M): +++

O=C1N(Cc2ccccc2)C(Cc2ccccc2)C(O)C(O)C(Cc2ccc(OCP(=O)(O)O)cc2)N1Cc1ccccc1 (centres unmarked) [listing 1 of 2 here]
IC50 (84V90M [7]): 210 nM

O=C1N(Cc2ccccc2)C(Cc2ccccc2)C(O)C(O)C(Cc2ccc(OCP(=O)(O)O)cc2)N1Cc1ccccc1 (centres unmarked) [listing 2 of 2 here]
pIC50 (84V90M [12]): 7.32 | pEC50 (WT; read-out: EC50 WT): 6.97 | pEC50 (84V90M [10]): 5.61 | pEC50 (30N82I88D; Cell-based assay (MT-4), 30N82I88D, read-out: EC50 30N 82I88D): 6.53 | pEC50 (48V54V82A; Cell-based assay (MT-4), 48V54V82A, read-out: EC50 48V54V 82A): 5.84 | pEC50 (48V54V82S; Cell-based assay (MT-4), 48V54V82S, read-out: EC50 48V54V 82S): 5.72 | pEC50 (48V82A90M; read-out: EC50 48V82A 90M, Cell-based assay (MT-4), 48V82A90M): 5.48 | pEC50 (46I50V; Cell-based assay (MT-4), 46I50V, read-out: EC50 46I50V): 6.23

CCOP(=O)(COc1ccc(CC(NC(=O)OC2COC3OCCC23)C(O)CN(CC(C)C)S(=O)(=O)c2ccc(OC)cc2)cc1)OCC (centres unmarked) [drawing 1768 R1=OEt R2=OEt]
I84V/L90M fold change [1]: − (≦3) | CC50 (in vitro): 5 to 50 µM

CCOC(=O)C(C)NP(=O)(COc1ccc(CC(NC(=O)OC2COC3OCCC23)C(O)CN(CC(C)C)S(=O)(=O)c2ccc(OC)cc2)cc1)Oc1ccccc1 (centres unmarked) [GS-16571]
Total No. of Resistant Viruses [8]: 0 | Major Intracellular Metabolites [13]: X,GS-8373

Reference: patent US20070010489A1 (priority 2002, published 2007)
